Patent US20260199368A1, “[…] SYSTEM CONTAINING REMIMAZOLAM” (LTS LOHMANN THERAPIE-SYSTEME AG, priority 2022, published 2026)

How the values were obtained:
[1] = Mucosa permeation study (in vitro permeation test); assay type: in vitro ADME, pig
Procedure: Where not otherwise indicated, the in vitro permeation test is performed with dermatomed split-thickness pig mucosa (mucosa oesophagus) with a thickness of 400 μm and an intact barrier function, and with phosphate buffer pH 7.4 as receptor medium (37° C.). The amount of active permeated into the receptor medium is determined in regular intervals using an HPLC method with a UV photometric detector by taking a sample volume. The measured amount of active permeated relates to the amount permeated between the two last sampling points and not the total amount permeated so far. Within the meaning of this invention, artificial saliva refers to an aqueous solution of 0.520 g/L potassium thiocyanate, 1.470 g/L potassium chloride, 0.190 g/L sodium dihydrogenphosphate monohydrate and 2.650 g/L sodium hydrogenphosphate dihydrate, adjusted to a pH of 7.0+/−0.05 using 1 N NaOH.
For the investigation of the potential impact of pH on the permeation, a permeation study was performed to assess the permeation of remimazolam besylate (RMZ besylate) through the mucosa in dependence of pH value. In a second run, also the performance of remimazolam lyophilizate product (RMZ besylate) vs. oromucosal delivery system was assessed.
The samples used for permeation run 1 are defined in Table 19.
The permeated amount and the corresponding mucosa permeation rates of the oromucosal delivery system prepared according to Examples 2a were determined by in vitro experiments in accordance with the OECD Guideline (adopted Apr. 13, 2004) using pig mucosa with a thickness of 400 μm (mucosa oesophagus). The donor solutions were prepared by dissolving a sample film of Example 2a with a size of 5.75 cm^2 either in 5 ml artificial saliva or in 5 ml 0.9% NaCl. The remimazolam besylate was dissolved in artificial saliva so that the applied dose of RMZ was equivalent to an oromucosal delivery system containing 50 mg remimazolam in 500 μL medium, and the pH of the mixture was adjusted as indicated in Table 19. The pH was measured using a pH electrode. The permeation donor solutions were directly applied to the mucosa (diffusion area of 4.524 cm^2). The remimazolam permeated amount in the receptor medium (phosphate buffer solution pH 7.4) at a temperature of 37±1° C. was measured and the corresponding mucosa permeation rate calculated.
Due to the high variability in permeation run 1 (n=3), a second permeation experiment was performed with more replicates (n=6) to enlarge the data basis. The samples used are defined in table 15. Example 2a and Lyophilizate were dissolved in artificial saliva and 0.9% NaCl, respectively. Due to a pH adjustment in the lyophilizate/drug product, the resulting pH was slightly lower (pH 3.14 and pH 3.09) than with the Example 2a without pH adjustment (pH 3.67 and pH 3.50). A RMZ sample set to pH 3 served as a control.
The permeated amount and the corresponding mucosa permeation rates of the oromucosal delivery system prepared according to Examples 2a were determined as outlined above. The remimazolam permeated amount in the receptor medium (phosphate buffer solution pH 7.4) at a temperature of 37±1° C. was measured and the corresponding mucosa permeation rate calculated.

Goettingen minipigs = assay: In vivo studies using Goettingen minipigs: depth of sedation score; conditions: Animal No 1; 10 min post dosing; IV, 2 mL of 5 mg/mL (10 mg)

In the case of `COC(=O)CC[C@@H]1N=C(c2ccccn2)c2cc(Br)ccc2-n2c(C)cnc21.O=S(=O)(O)c1ccccc1` [RMZ, remimazolam besylate], the “permeation rate (assessment)” value ([1]; artificial saliva, pH 4.5 and pH 6) is reported as “poor”, the mucosa permeation rate ([1]; n = 3, in artificial saliva (pH 2), 2.5 min) is reported as 1.98 μg/cm^2 min and the mucosa permeation rate ([1]; n = 3, in artificial saliva (pH 2), 7.5 min) is reported as 2.09 μg/cm^2 min. For the same compound, the mucosa permeation rate ([1]; n = 3, in artificial saliva (pH 2), 12.5 min) was 1.83 μg/cm^2 min, the mucosa permeation rate ([1]; n = 3, in artificial saliva (pH 2), 17.5 min) was 1.95 μg/cm^2 min and the mucosa permeation rate ([1]; n = 3, in artificial saliva (pH 2), 22.5 min) was 1.92 μg/cm^2 min. It also gave a mucosa permeation rate ([1]; n = 3, in artificial saliva (pH 2), 27.5 min) of 2.04 μg/cm^2 min, a mucosa permeation rate ([1]; n = 3, in artificial saliva (pH 2), 45 min) of 1.36 μg/cm^2 min and a mucosa permeation rate ([1]; n = 3, in artificial saliva (pH 3), 2.5 min) of 0.19 μg/cm^2 min. For the same compound, the mucosa permeation rate ([1]; n = 3, in artificial saliva (pH 3), 7.5 min) was 0.75 μg/cm^2 min, the mucosa permeation rate ([1]; n = 3, in artificial saliva (pH 3), 12.5 min) was 1.18 μg/cm^2 min and the mucosa permeation rate ([1]; n = 3, in artificial saliva (pH 3), 17.5 min) was 1.43 μg/cm^2 min. For the same compound, the mucosa permeation rate ([1]; n = 3, in artificial saliva (pH 3), 22.5 min) was 1.62 μg/cm^2 min, the mucosa permeation rate ([1]; n = 3, in artificial saliva (pH 3), 27.5 min) was 1.80 μg/cm^2 min and the mucosa permeation rate ([1]; n = 3, in artificial saliva (pH 3), 45 min) was 1.60 μg/cm^2 min. It also gave a mucosa permeation rate ([1]; n = 3, in artificial saliva (pH 4.5), 2.5 min) of 0.09 μg/cm^2 min, a mucosa permeation rate ([1]; n = 3, in artificial saliva (pH 4.5), 7.5 min) of 0.37 μg/cm^2 min and a mucosa permeation rate ([1]; n = 3, in artificial saliva (pH 4.5), 12.5 min) of 0.22 μg/cm^2 min. It also gave a mucosa permeation rate ([1]; n = 3, in artificial saliva (pH 4.5), 17.5 min) of 0.26 μg/cm^2 min, a mucosa permeation rate ([1]; n = 3, in artificial saliva (pH 4.5), 22.5 min) of 0.34 μg/cm^2 min and a mucosa permeation rate ([1]; n = 3, in artificial saliva (pH 4.5), 27.5 min) of 0.58 μg/cm^2 min. For the same compound, the mucosa permeation rate ([1]; n = 3, in artificial saliva (pH 4.5), 45 min) was 0.26 μg/cm^2 min, the mucosa permeation rate ([1]; n = 3, in artificial saliva (pH 6), 2.5 min) was 0.11 μg/cm^2 min and the mucosa permeation rate ([1]; n = 3, in artificial saliva (pH 6), 7.5 min) was 0.18 μg/cm^2 min. It also gave a mucosa permeation rate ([1]; n = 3, in artificial saliva (pH 6), 12.5 min) of 0.18 μg/cm^2 min, a mucosa permeation rate ([1]; n = 3, in artificial saliva (pH 6), 17.5 min) of 0.31 μg/cm^2 min and a mucosa permeation rate ([1]; n = 3, in artificial saliva (pH 6), 22.5 min) of 0.37 μg/cm^2 min. The mucosa permeation rate ([1]; n = 3, in artificial saliva (pH 6), 27.5 min) was 0.58 μg/cm^2 min, the mucosa permeation rate ([1]; n = 3, in artificial saliva (pH 6), 45 min) was 0.47 μg/cm^2 min and the mucosa permeation rate ([1]; n = 6, in artificial saliva (pH 3), 2.5 min) was 0.01 μg/cm^2 min. For the same compound, the mucosa permeation rate ([1]; n = 6, in artificial saliva (pH 3), 7.5 min) was 0.21 μg/cm^2 min, the mucosa permeation rate ([1]; n = 6, in artificial saliva (pH 3), 12.5 min) was 0.65 μg/cm^2 min and the mucosa permeation rate ([1]; n = 6, in artificial saliva (pH 3), 17.5 min) was 1.08 μg/cm^2 min. For the same compound, the mucosa permeation rate ([1]; n = 6, in artificial saliva (pH 3), 22.5 min) was 1.38 μg/cm^2 min, the mucosa permeation rate ([1]; n = 6, in artificial saliva (pH 3), 27.5 min) was 1.56 μg/cm^2 min and the mucosa permeation rate ([1]; n = 6, in artificial saliva (pH 3), 45 min) was 1.23 μg/cm^2 min. For the same compound, the “mucosa permeation, comparison between samples” value ([1]; run 2, n = 6, 0.9% NaCl and artificial saliva) was “no significant difference” and the Sedation/anaesthesia score (Goettingen minipigs) was “¾”.
